Assay results: PMC12564265, “Navigating the Deep Eutectic Solvent Landscape: Experimental and Machine Learning Solubility Explorations of Syringic, p-Coumaric, and Caffeic Acids” (International Journal of Molecular Sciences, 2025)
Where “and” joins values, the source holds several entries; their conditions need not be identical. Identical values can stand only once.

Key:
[1] = Shake-flask solubility with spectrophotometric measurement in neat deep eutectic solvents; format: physicochemical
Protocol: (§1) In order to determine the solubility of the three studied phenolic acids in deep eutectic solvents, a very well-established shake-flask method coupled with spectrophotometric measurements was utilized. The initial procedure involved the preparation of various DESs, which was conducted by mixing their HBA and HBD counterparts in a glass vessel and heating the composition until the formation of a transparent, uniform liquid. […] For additional measurements, the DESs were mixed with water in varying proportions, creating aqueous DES systems. Saturated solutions of CAF, SYR, and COU were obtained by adding excess amounts of these compounds to test tubes containing either a neat deep eutectic solvent or its aqueous solution. Such samples were placed in the Orbital Shaker Incubator ES-20/60 from Biosan (Riga, Latvia) and heated for 24 h at 25 °C, 30 °C, 35 °C, and 40 °C (±0.1 °C) with simultaneous mixing at 60 rpm. Before measurements, the samples were filtered using a PTFE syringe filter from Qpore (Dallas, TX, USA) with a 0.22 μm pore size. In order to avoid possible precipitation of the saturated solutions at decreased temperatures, the test tubes, syringes, pipette tips, and filters were kept at a temperature identical to that of the samples. The spectrophotometric measurements required the preparation of calibration curves for the three APIs. This involved the preparation of a stock solution of each compound in methanol, which was later successfully diluted, and the obtained solutions of varying concentrations were measured using an A360 spectrophotometer from AOE Instruments (Shanghai, China). The wavelength range was set to 200-500 nm, and the resolution was 1 nm. The analytical wavelengths were determined to be 324 nm for caffeic acid, 273 nm for syringic acid, and 308 nm for p-coumaric acid. The final regression equations, obtained after averaging three distinct sets of measurements, are collected in Table 2 together with determination coefficients and limits of detection (LOD) and quantification (LOQ) for the calibration curves. The measurements of the samples were conducted with the same spectrophotometer and identical settings. Methanol was used for the dilution of the samples so that they could remain within the linearity range of the method. Complete spectra of the samples were recorded, but for the solubility determination, the absorbance values at a specific analytical wavelength were considered. These values were combined with the corresponding regression equations of the calibration curves and served for the calculation of the concentration of the three phenolic acids in the studied samples. The densities of such samples were also measured, and for this task 1 mL of each sample was weighed to a precision of 0.1 mg using an AS 110 R2.PLUS analytical balance from […] (Radom, Poland). The obtained densities enabled the calculation of mole fractions of CAF, SYR, and COU dissolved in the studied DESs. For each considered system, three distinct measurements were conducted, and the results were averaged.

[2] = Shake-flask solubility with spectrophotometric measurement in aqueous DES mixtures; format: physicochemical; conditions: Bet – GLY 1:2 + water
Protocol: as §1

SMILES: O=C(O)C=Cc1ccc(O)cc1 [p-coumaric acid, 4-hydroxycinnamic acid]
- Mole fraction solubility ([1]; neat DES Bet - DEG, HBA:HBD molar ratio 1:1, 25 °C): 0.0490±0.0005 mole fraction
- Mole fraction solubility ([1]; neat DES Bet - DEG, HBA:HBD molar ratio 1:2, 25 °C): 0.0639±0.0004 mole fraction
- Mole fraction solubility ([1]; neat DES Bet - DEG, HBA:HBD molar ratio 1:4, 25 °C): 0.0575±0.0005 mole fraction
- Mole fraction solubility ([1]; neat DES Bet - ETG, HBA:HBD molar ratio 1:1, 25 °C): 0.0323±0.0004 mole fraction
- Mole fraction solubility ([1]; neat DES Bet - ETG, HBA:HBD molar ratio 1:2, 25 °C): 0.0351±0.0002 mole fraction
- Mole fraction solubility ([1]; neat DES Bet - GLY, HBA:HBD molar ratio 1:1, 25 °C): 0.0670±0.0005 mole fraction
- Mole fraction solubility ([1]; neat DES Bet - GLY, HBA:HBD molar ratio 1:2, 25 °C): 0.0898 mole fraction
- Mole fraction solubility ([1]; neat DES Bet - GLY, HBA:HBD molar ratio 1:2, 25 °C, listed as coumaric acid): 0.0898±0.0003 mole fraction
- Mole fraction solubility ([1]; neat DES Bet - GLY, HBA:HBD molar ratio 1:4, 25 °C): 0.0739±0.0004 mole fraction
- Mole fraction solubility ([1]; neat DES Bet - TEG, HBA:HBD molar ratio 1:1, 25 °C): 0.0648±0.0006 mole fraction
- Mole fraction solubility ([1]; neat DES Bet - TEG, HBA:HBD molar ratio 1:2, 25 °C): 0.0894±0.0005 mole fraction
- Mole fraction solubility ([1]; neat DES Bet - TEG, HBA:HBD molar ratio 1:4, 25 °C): 0.0778±0.0005 mole fraction
- Mole fraction solubility ([1]; neat DES ChCl - DEG, HBA:HBD molar ratio 1:1, 25 °C): 0.0644±0.0004 mole fraction
- Mole fraction solubility ([1]; neat DES ChCl - DEG, HBA:HBD molar ratio 1:2, 25 °C): 0.0775±0.0005 mole fraction
- Mole fraction solubility ([1]; neat DES ChCl - ETG, HBA:HBD molar ratio 1:1, 25 °C): 0.0387±0.0004 mole fraction
- Mole fraction solubility ([1]; neat DES ChCl - ETG, HBA:HBD molar ratio 1:2, 25 °C): 0.0470±0.0003 mole fraction
- Mole fraction solubility ([1]; neat DES ChCl - ETG, HBA:HBD molar ratio 1:4, 25 °C): 0.0411±0.0004 mole fraction
- Mole fraction solubility ([1]; neat DES ChCl - TEG, HBA:HBD molar ratio 1:2, 25 °C): 0.0997 mole fraction
- Mole fraction solubility ([2]; x*DES 0.1, 25°C): 0.0093±0.0001 mole fraction
- Mole fraction solubility ([2]; x*DES 0.1, 30°C): 0.0116±0.0001 mole fraction
- Mole fraction solubility ([2]; x*DES 0.1, 35°C): 0.0146±0.0001 mole fraction
- Mole fraction solubility ([2]; x*DES 0.1, 40°C): 0.0188±0.0001 mole fraction
- Mole fraction solubility ([2]; x*DES 0.2, 25°C): 0.0212±0.0003 mole fraction
- Mole fraction solubility ([2]; x*DES 0.2, 30°C): 0.0261±0.0002 mole fraction
- Mole fraction solubility ([2]; x*DES 0.2, 35°C): 0.0328±0.0003 mole fraction
- Mole fraction solubility ([2]; x*DES 0.2, 40°C): 0.0429±0.0003 mole fraction
- Mole fraction solubility ([2]; x*DES 0.3, 25°C): 0.0316±0.0004 mole fraction
- Mole fraction solubility ([2]; x*DES 0.3, 30°C): 0.0385±0.0003 mole fraction
- Mole fraction solubility ([2]; x*DES 0.3, 35°C): 0.0489±0.0004 mole fraction
- Mole fraction solubility ([2]; x*DES 0.3, 40°C): 0.0631±0.0003 mole fraction
- Mole fraction solubility ([2]; x*DES 0.4, 25°C): 0.0424±0.0005 mole fraction
- Mole fraction solubility ([2]; x*DES 0.4, 30°C): 0.0510±0.0004 mole fraction
- Mole fraction solubility ([2]; x*DES 0.4, 35°C): 0.0654±0.0004 mole fraction
- Mole fraction solubility ([2]; x*DES 0.4, 40°C): 0.0850±0.0007 mole fraction
- Mole fraction solubility ([2]; x*DES 0.5, 25°C): 0.0545±0.0003 mole fraction
- Mole fraction solubility ([2]; x*DES 0.5, 30°C): 0.0655±0.0004 mole fraction
- Mole fraction solubility ([2]; x*DES 0.5, 35°C): 0.0843±0.0006 mole fraction
- Mole fraction solubility ([2]; x*DES 0.5, 40°C): 0.1107±0.0012 mole fraction
- Mole fraction solubility ([2]; x*DES 0.6, 25°C): 0.0687±0.0004 mole fraction
- Mole fraction solubility ([2]; x*DES 0.6, 30°C): 0.0827±0.0006 mole fraction
- Mole fraction solubility ([2]; x*DES 0.6, 35°C): 0.1045±0.0009 mole fraction
- Mole fraction solubility ([2]; x*DES 0.6, 40°C): 0.1410±0.0021 mole fraction
- Mole fraction solubility ([2]; x*DES 0.7, 25°C): 0.0803±0.0006 mole fraction
- Mole fraction solubility ([2]; x*DES 0.7, 30°C): 0.0972±0.0008 mole fraction
- Mole fraction solubility ([2]; x*DES 0.7, 35°C): 0.1233±0.0020 mole fraction
- Mole fraction solubility ([2]; x*DES 0.7, 40°C): 0.1617±0.0014 mole fraction
- Mole fraction solubility ([2]; x*DES 0.8, 25°C): 0.0900±0.0007 mole fraction
- Mole fraction solubility ([2]; x*DES 0.8, 30°C): 0.1117±0.0011 mole fraction
- Mole fraction solubility ([2]; x*DES 0.8, 35°C): 0.1413±0.0023 mole fraction
- Mole fraction solubility ([2]; x*DES 0.8, 40°C): 0.1818±0.0015 mole fraction
- Mole fraction solubility ([2]; x*DES 0.9, 25°C): 0.0926 mole fraction and 0.0926±0.0006 mole fraction
